Laboratory results from ChEMBL document CHEMBL5154636, “Discovery of STAT3 and Histone Deacetylase (HDAC) Dual-Pathway Inhibitors for the Treatment of Solid Cancer” (J Med Chem, 2021).
pIC50: −log10 of the molar value. Calls of active or inactive are those of the source. No cut-off for these calls is given here.

Experiments:
[1] = target: T1, Signal transducer and activator of transcription 3 (Homo sapiens, UniProt P40763); experiment: Inhibition of STAT3 in human MDA-MB-231 cells assessed as decrease in Bcl-2 mRNA expression at 0.5 to 5 uM by qRT-PCR analysis; format: cell-based; conditions: dose 0.5-5 µM
T1 sequence (P40763 whole entry): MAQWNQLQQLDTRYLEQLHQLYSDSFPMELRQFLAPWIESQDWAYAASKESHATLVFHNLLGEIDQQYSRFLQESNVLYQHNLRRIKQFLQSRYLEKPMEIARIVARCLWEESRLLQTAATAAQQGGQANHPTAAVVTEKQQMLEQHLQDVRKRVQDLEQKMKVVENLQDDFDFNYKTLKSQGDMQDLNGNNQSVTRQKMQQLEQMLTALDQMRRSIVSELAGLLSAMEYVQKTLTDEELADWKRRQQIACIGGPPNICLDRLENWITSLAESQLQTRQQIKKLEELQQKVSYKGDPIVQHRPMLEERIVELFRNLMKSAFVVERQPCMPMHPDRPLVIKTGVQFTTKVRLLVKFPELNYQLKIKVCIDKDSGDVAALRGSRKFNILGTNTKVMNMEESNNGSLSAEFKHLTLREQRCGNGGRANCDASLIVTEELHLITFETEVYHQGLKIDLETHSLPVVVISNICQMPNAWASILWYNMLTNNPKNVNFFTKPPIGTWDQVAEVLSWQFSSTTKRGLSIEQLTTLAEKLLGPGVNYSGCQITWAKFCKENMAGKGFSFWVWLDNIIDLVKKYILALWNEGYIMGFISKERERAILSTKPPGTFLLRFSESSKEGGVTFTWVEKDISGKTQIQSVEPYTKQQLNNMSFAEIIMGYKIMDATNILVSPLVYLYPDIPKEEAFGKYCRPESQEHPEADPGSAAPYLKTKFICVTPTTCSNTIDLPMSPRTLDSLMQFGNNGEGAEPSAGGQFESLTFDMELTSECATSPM

[2] = Acute toxicity in po dosed ICR mouse assessed as maximum tolerated dose measured after 7 days; format: organism-based; conditions: in vivo, time 7 day
MDA-MB-231 [3] = experiment: Induction of apoptosis in human MDA-MB-231 cells assessed as late apoptotic cells at 5 uM incubated for 24 hrs by Annexin-V/FITC and PI staining based flow cytometry analysis (reference value: 0.7%); format: functional
MDA-MB-231 [4] = experiment: Antimigratory activity against human MDA-MB-231 cells assessed as inhibition of cell migration at 5 uM after 24 hrs by scratch wound healing assay based phase contrast microscopy analysis; format: functional
[5] = Toxicity in BALB/c mousee assessed as change in body weight at 15 to 30 mg/kg, ip qd for 21 days; format: organism-based; conditions: mouse, in vivo, 504 h, dose 15-30 mg/kg, time 21 day
MDA-MB-231 [6] = experiment: Induction of apoptosis in human MDA-MB-231 cells assessed as early apoptotic cells at 5 uM incubated for 24 hrs by Annexin-V/FITC and PI staining based flow cytometry analysis (reference value: 1.4%); format: functional
HCT-116 = experiment: Cytotoxicity against human HCT-116 cells assessed as reduction in cell viability incubated for 48 hrs by MTT assay; format: functional, cell-based; conditions: HCT-116, 48 h
MDA-MB-231 [7] = experiment: Induction of apoptosis in human MDA-MB-231 cells assessed as late apoptotic cells at 10 uM incubated for 24 hrs by Annexin-V/FITC and PI staining based flow cytometry analysis (reference value: 0.7%); format: functional
[8] = target: Histone deacetylase (Homo sapiens) (UniProt Q13547+O15379+Q9UBN7+Q92769+Q9UQL6+Q8WUI4+Q9BY41+Q96DB2+P56524+Q9UKV0+Q969S8); experiment: Inhibition of HDAC in human MDA-MB-231 cells assessed as increase in alpha tubulin acetylation incubated for 24 hrs by Western blot analysis; format: cell-based; conditions: dose 0.5-5 µM, DDE = dose-dependent effect
[9] = Volume of distribution at steady state in Sprague-Dawley rat at 2 mg/kg, iv measured upto 24 hrs by LC-MS/MS analysis; format: ADME, organism-based; conditions: in vivo, read-out: Vdss
[10] = target: T2, Protein deacetylase HDAC6 (Homo sapiens, UniProt Q9UBN7); experiment: Inhibition of recombinant human HDAC6 using RHKK(Ac)AMC fluorogenic peptide as substrate by fluorescence assay
T2 sequence (Q9UBN7 whole entry): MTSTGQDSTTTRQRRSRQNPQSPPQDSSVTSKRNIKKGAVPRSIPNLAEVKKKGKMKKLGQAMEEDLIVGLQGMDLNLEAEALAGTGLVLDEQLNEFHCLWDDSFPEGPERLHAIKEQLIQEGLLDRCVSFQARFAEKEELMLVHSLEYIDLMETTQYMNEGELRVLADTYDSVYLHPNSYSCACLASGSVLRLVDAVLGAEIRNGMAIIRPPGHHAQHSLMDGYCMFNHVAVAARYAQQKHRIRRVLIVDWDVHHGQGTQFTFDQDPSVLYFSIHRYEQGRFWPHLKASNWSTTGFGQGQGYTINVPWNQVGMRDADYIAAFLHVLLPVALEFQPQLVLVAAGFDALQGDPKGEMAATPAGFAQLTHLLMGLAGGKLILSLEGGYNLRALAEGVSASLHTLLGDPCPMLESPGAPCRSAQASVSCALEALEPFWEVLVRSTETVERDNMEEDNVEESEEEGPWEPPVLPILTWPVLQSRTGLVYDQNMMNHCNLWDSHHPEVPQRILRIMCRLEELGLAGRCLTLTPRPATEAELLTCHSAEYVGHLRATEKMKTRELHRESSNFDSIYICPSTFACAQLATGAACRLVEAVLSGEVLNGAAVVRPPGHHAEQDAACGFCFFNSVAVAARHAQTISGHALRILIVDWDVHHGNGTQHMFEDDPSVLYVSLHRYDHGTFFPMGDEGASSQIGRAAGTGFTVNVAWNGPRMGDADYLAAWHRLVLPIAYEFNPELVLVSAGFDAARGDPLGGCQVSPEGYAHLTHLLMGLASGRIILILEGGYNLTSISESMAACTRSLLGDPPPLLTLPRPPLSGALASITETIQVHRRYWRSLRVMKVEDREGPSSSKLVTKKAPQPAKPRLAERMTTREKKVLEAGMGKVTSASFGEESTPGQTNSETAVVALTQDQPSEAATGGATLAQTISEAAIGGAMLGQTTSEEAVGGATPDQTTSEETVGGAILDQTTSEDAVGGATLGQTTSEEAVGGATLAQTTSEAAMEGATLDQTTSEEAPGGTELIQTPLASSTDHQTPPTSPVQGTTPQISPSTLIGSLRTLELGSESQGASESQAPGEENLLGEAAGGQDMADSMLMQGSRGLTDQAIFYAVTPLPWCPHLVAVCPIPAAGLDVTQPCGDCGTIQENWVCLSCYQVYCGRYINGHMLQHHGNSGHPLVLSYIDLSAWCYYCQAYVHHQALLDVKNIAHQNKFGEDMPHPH

MDA-MB-231 [11] = experiment: Induction of apoptosis in human MDA-MB-231 cells assessed as increase in cleaved PARP level at 0.5 to 5 uM incubated for 24 hrs by Western blot analysis; format: functional, cell-based; conditions: dose 0.5-5 µM
[12] = target: T1, Signal transducer and activator of transcription 3; experiment: Inhibition of STAT3 phosphorylation at Y705 residue in human MDA-MB-231 cells incubated for 24 hrs by Western blot assay; format: cell-based; conditions: dose 0.5-5 µM
MDA-MB-231 [13] = experiment: Inhibition of colony formation in human MDA-MB-231 cells at 0.5 to 0.5 uM incubated for 24 hrs followed by culturing in fresh compound-free medium for 15 days by crystal violet dye based assay; format: functional, cell-based; conditions: dose 0.5-0.5 µM
MCF-10A = experiment: Cytotoxicity against human MCF-10 A cells assessed as reduction in cell viability at 32 uM incubated for 48 hrs by MTT assay relative to control; format: toxicity, cell-based
L02 = experiment: Cytotoxicity against human L02 cells assessed as reduction in cell viability at 32 uM incubated for 48 hrs by MTT assay relative to control; format: toxicity, cell-based; conditions: l02, 48 h
Histone deacetylase = experiment: Inhibition of HDAC in human MDA-MB-231 cells incubated for 24 hrs by fluorometric assay; format: cell-based
MDA-MB-231 [14] = experiment: Induction of apoptosis in human MDA-MB-231 cells assessed as increase in cleaved capase-7 level at 0.5 to 5 uM incubated for 24 hrs by Western blot analysis; format: functional, cell-based; conditions: dose 0.5-5 µM
4T1 = experiment: Antitumor activity against mouse 4T1 cells allografted in BALB/c mouse assessed as reduction in tumor weight at 30 mg/kg, ip qd for 21 days by vernier caliper method relative to control; format: functional; design: scale not given: the % may be the effect or the level left; conditions: time 21 day

COc1cc(/C=C/c2ccc(OCCCCCCC(=O)NO)cc2)cc(OC)c1
inhibition [1]: Active | MTD at 168 h [2]: > 400 mg/kg | Activity (MDA-MB-231 [3]): 3.9% | Activity (MDA-MB-231 [4]): Active | Activity [5]: Non-Toxic | Activity (MDA-MB-231 [6]): 15.2% | pIC50 (HCT-116): 5.97 | Activity (MDA-MB-231 [7]): 19.7% | Activity [8]: Dde | Vd [9]: 1.65 L/kg | pIC50 [10]: 6.98 | Activity (MDA-MB-231 [11]): Active | inhibition [12]: Active | inhibition (MDA-MB-231 [13]): Active | Activity (MCF-10A): 38% | Activity (L02): 32% | IC50 (Histone deacetylase): 23.15 nM | Activity (MDA-MB-231 [14]): Active | Activity (4T1): 62%
